Reference: patent US11279733B2, “Peptide antibiotics” (priority 2017, dated 2022)
≈ marks a conversion by molar mass, not a printed value. Starred links: 1 amine or outer side, 2 acyl side, 3 side chain; linkers in the order of their positions; H or OH if unused. Positions of bridges follow the written chain, without caps; N, C: chain ends. Non-standard residues stand in square brackets, D forms with d. Residues, ends and D or L forms follow the SMILES beside them. *: point of attachment. X10 = CCCCCCC[C@@H](O)CC(=O)N[C@H](CCN)C(=O)NN(CCN[*:2])C(=O)[*:1]; Decanoyl(3R-OH) = CCCCCCC[C@@H](O)CC(=O)*; Decanoyl = CCCCCCCCCC(=O)*; Nonanoyl = CCCCCCCCC(=O)*; dDab = NCC[C@@H](N)C(=O)O; Heptanoyl = CCCCCCC(=O)*; dDap = NC[C@@H](N)C(=O)O; Dab = NCC[C@H](N)C(=O)O

Columns and labels:
[1] = test system: A. baumannii ATCC 19606; details: ATCC 19606
Method in brief: (§1)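 Mid-log cultures grown in Mueller Hinton broth at 37° C were tested by 2-fold broth microdilution at 5×10^5 CFU/mL final. Compounds were dissolved in water and tested over a final range of 32 to 0.015 μg/mL.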

[2] = test system: A. baumannii GN_093 PmxR; details: GN 093 PmxR
Method in brief: as §1

[3] = test system: E. coli ATCC 25922; details: ATCC 25922
Method in brief: as §1

[4] = test system: K. pneumoniae ATCC 13883; details: ATCC 13883
Method in brief: as §1

[5] = test system: K. pneumoniae ATCC 700603, MDR; details: ATCC 700603
Method in brief: as §1

[6] = test system: K. pneumoniae ATCC BAA-2146, NDM-1 pos; details: ATCC BAA-2146
Method in brief: as §1

[7] = test system: K. pneumoniae GN_102 PmxR; details: GN 102 PmxR
Method in brief: as §1

[8] = test system: K. pneumoniae GN_106, PmxR; details: GN 106, PmxR
Method in brief: as §1

[9] = test system: P. aeruginosa ATCC 27853; details: ATCC 27853
Method in brief: as §1

[10] = test system: P. aeruginosa GN_043, PmxR; details: for MIC, P. aeruginosa FADDI-PA070, PmxR: strain name as in Table 11
Method in brief: as §1

[11] = test system: P. aeruginosa GN_105, PmxR; details: GN 105, PmxR
Method in brief: as §1

[12] = test system: S. aureus ATCC 25923, MSSA; details: ATCC 25923
Method in brief: as §1

[13] = in vitro; details: human
Method in brief: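 4000 cells/well, 24 h attach (37 °C, 5% CO2); compound 24 h; 5 μM resazurin 2 h, 37 °C; fluorescence ex/em 560/590. CC50 by curve fit.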

Row | Compound | MIC A. baumannii ATCC 19606 [1] [µg/mL] | MIC A. baumannii GN_093 PmxR [2] [µg/mL] | MIC E. coli ATCC 25922 [3] [µg/mL] | MIC K. pneumoniae ATCC 13883 [4] [µg/mL] | MIC K. pneumoniae ATCC 700603, MDR [5] [µg/mL] | MIC K. pneumoniae ATCC BAA-2146, NDM-1 pos [6] [µg/mL] | MIC K. pneumoniae GN_102 PmxR [7] [µg/mL] | MIC K. pneumoniae GN_106, PmxR [8] [µg/mL] | MIC P. aeruginosa ATCC 27853 [9] [µg/mL] | MIC P. aeruginosa GN_043, PmxR [10] [µg/mL] | MIC P. aeruginosa GN_105, PmxR [11] [µg/mL] | MIC S. aureus ATCC 25923, MSSA [12] [µg/mL] | CC50 at 24 h [13] [µM] | MIC A. baumannii Cl Ptyela 10073 4512:2, PmxR [2] [µg/mL] | MIC K. pneumoniae Cl Koprana 10065 0661:1 PmxR [7] [µg/mL] | MIC K. pneumoniae Cl 183-16357-20352, PmxR [8] [µg/mL] | MIC, P. aeruginosa FADDI-PA070, PmxR [10] [µg/mL] | MIC P. aeruginosa PA9704, PmxR [11] [µg/mL]
1 | CCCCCCC(=O)N[C@H](CN)C(=O)N[C@H]1CCNC(=O)[C@H](CC(C)C)NC(=O)[C@H](CCN)NC(=O)[C@H](CCN)NC(=O)[C@H](CC(C)C)NC(=O)[C@@H](Cc2ccccc2)NC(=O)[C@H](CCN)NC1=O [compound 9190, nC6CO-D-Dap-cyc[L-Dab-L-Dab-D-Phe-L-Leu-L-Dab-L-Dab-L-Leu]] (Heptanoyl-[dDap][Dab][Dab][dF]L[Dab][Dab]L; lactam 2-C) | >32 | >32 | 8 (≈ 8.23 µM) | 16 (≈ 16.5 µM) | 16 (≈ 16.5 µM) | 16 (≈ 16.5 µM) | 32 (≈ 32.9 µM) | >32 | 2 (≈ 2.06 µM) | 4 (≈ 4.11 µM) | 8 (≈ 8.23 µM) | >32 | > 300 | – | – | – | – | –
2 | CCCCCCCCC(=O)N[C@H](CN)C(=O)N[C@H]1CCNC(=O)[C@H](CC(C)C)NC(=O)[C@H](CCN)NC(=O)[C@H](CCN)NC(=O)[C@H](CC(C)C)NC(=O)[C@@H](Cc2ccccc2)NC(=O)[C@H](CCN)NC1=O [compound 9191, nC8CO-D-Dap-cyc[L-Dab-L-Dab-D-Phe-L-Leu-L-Dab-L-Dab-L-Leu]] (Nonanoyl-[dDap][Dab][Dab][dF]L[Dab][Dab]L; lactam 2-C) | >32 | >32 | 4 (≈ 4 µM) | 8 (≈ 8 µM) | 8 (≈ 8 µM) | 8 (≈ 8 µM) | 8 (≈ 8 µM) | 16 (≈ 16 µM) | 4 (≈ 4 µM) | 2 (≈ 2 µM) | 2 (≈ 2 µM) | 32 (≈ 32 µM) | > 300 | – | – | – | – | –
3 | CCCCCCCCCC(=O)N[C@H](CN)C(=O)N[C@H]1CCNC(=O)[C@H](CC(C)C)NC(=O)[C@H](CCN)NC(=O)[C@H](CCN)NC(=O)[C@H](CC(C)C)NC(=O)[C@@H](Cc2ccccc2)NC(=O)[C@H](CCN)NC1=O [compound 9192, nC9CO-D-Dap-cyc[L-Dab-L-Dab-D-Phe-L-Leu-L-Dab-L-Dab-L-Leu]] (Decanoyl-[dDap][Dab][Dab][dF]L[Dab][Dab]L; lactam 2-C) | 32 (≈ 31.5 µM) | 4 (≈ 3.94 µM) | 2 (≈ 1.97 µM) | 8 (≈ 7.89 µM) | 8 (≈ 7.89 µM) | 8 (≈ 7.89 µM) | 8 (≈ 7.89 µM) | 8 (≈ 7.89 µM) | 4 (≈ 3.94 µM) | 4 (≈ 3.94 µM) | 2 (≈ 1.97 µM) | 8 (≈ 7.89 µM) | 224 | – | – | – | – | –
4 | CCCCCCC[C@@H](O)CC(=O)N[C@H](CCN)C(=O)N[C@H]1CCNC(=O)[C@H](CC(C)C)NC(=O)[C@H](CCN)NC(=O)[C@H](CCN)NC(=O)[C@@H](Cc2ccccc2)NC(=O)[C@H](CC(C)C)NC(=O)[C@H](CCN)NC1=O [compound 9194, 3(R)-OH-nC9CO-D-Dab-cyc[L-Dab-L-Dab-L-Leu-D-Phe-L-Dab-L-Dab-L-Leu]] ({Decanoyl(3R-OH)}-[dDab][Dab][Dab]L[dF][Dab][Dab]L; lactam 2-C) | >32 | >32 | 32 (≈ 30.6 µM) | >32 | >32 | >32 | >32 | >32 | 32 (≈ 30.6 µM) | >32 | >32 | 32 (≈ 30.6 µM) | > 300 | – | – | – | – | –
5 | CCCCCCC[C@@H](O)CC(=O)N[C@H](CCN)C(=O)N[C@H]1CCNC(=O)N(CC(C)C)NC(=O)[C@H](CCN)NC(=O)[C@H](CCN)NC(=O)[C@H](CC(C)C)NC(=O)[C@@H](Cc2ccccc2)NC(=O)[C@@H](CCN)NC1=O [compound 9416, 3(R)OH-nC9CO-D-Dab-cyc[L-Dab-L-Dab-D-Phe-L-Leu-L-Dab-L-Dab-(aza-Leu)]] | >32 | – | 16 (≈ 15.3 µM) | 16 (≈ 15.3 µM) | 16 (≈ 15.3 µM) | 16 (≈ 15.3 µM) | – | – | 4 (≈ 3.83 µM) | – | – | 32 (≈ 30.6 µM) | > 300 | >32 | >32 | >32 | >32 | >32
6 | CCCCCCC[C@@H](O)CC(=O)N[C@H](CCN)C(=O)NN1CCNC(=O)[C@H](CC(C)C)NC(=O)[C@H](CCN)NC(=O)[C@H](CCN)NC(=O)[C@H](CC(C)C)NC(=O)[C@@H](Cc2ccccc2)NC(=O)[C@H](CCN)NC1=O [compound 9417, 3(R)OH-nC9CO-D-Dab-cyc[(aza-Dab)-L-Dab-D-Phe-L-Leu-L-Dab-L-Dab-L-Leu]] ([Dab][dF]L[Dab][Dab]L; linker N-C via X10) | >32 | – | >32 | >32 | >32 | >32 | – | – | 16 (≈ 15.3 µM) | – | – | 8 (≈ 7.65 µM) | > 300 | >32 | >32 | >32 | >32 | >32
